Results taken from patent publication US4409207A, “Derivatives of clavulanic acid, a process for their preparation and their use” (Beecham Group Limited, priority 1978, dated 1983).

Experiments:
[1] = toxic effects during testing at therapeutic doses in animals; type: in vivo
[2] = system: Staph. Russell; assay: standard MIC test of ampicillin with synergist, Staph. Russell; type: cell-based
Excerpt: (§1) The synergist referred to hereinafter is sodium 9-O-carboxamidomethylclavulanate.

[3] = system: E. coli JT 39 infection; assay: E. coli JT 39 infection in mice, CD50 of amoxycillin with subcutaneous synergist; type: in vivo
[4] = system: Kleb. E 70; assay: standard MIC test of ampicillin with synergist, Kleb. E 70; type: cell-based
Excerpt: as §1

[5] = system: E. Coli JT 39; assay: standard MIC test of ampicillin with synergist, E. Coli JT 39; type: cell-based
Excerpt: as §1

[6] = system: Staph. Russell, Kleb. E 70, Proteus C889, E. Coli JT 39; assay: standard MIC tests, synergy statement; type: cell-based; conditions: with ampicillin
Excerpt: as §1

[7] = system: Proteus C889; assay: standard MIC test of ampicillin with synergist, Proteus C889; type: cell-based; conditions: 0 μg/ml synergist (ampicillin alone)
Excerpt: as §1

[8] = synergist alone, obtained in separate test
[9] = 0 μg/ml synergist (ampicillin alone)

NC(=O)COC/C=C1\O[C@@H]2CC(=O)N2[C@H]1C(=O)O [Example 2, Sodium 9-O-carboxamidomethylclavulanate]
overt toxic symptoms ([1]; in vivo): No overt toxic symptoms were observed | animal deaths due to toxic effects ([1]; therapeutic doses): did not cause animal deaths due to toxic effects | MIC [2, 8]: 31 µg/mL | effect of the compound alone on infection ([3]; compound of this example alone at 2 mg/kg×2): no effect | MIC [4, 8]: 31 µg/mL | MIC ([5]; Escherichia coli, synergist alone, obtained in separate test): 31 µg/mL | synergy in standard MIC tests [6]: demonstrated synergy

CC1(C)S[C@@H]2[C@H](NC(=O)[C@H](N)c3ccccc3)C(=O)N2[C@H]1C(=O)O [Ampicillin, reference compound]
MIC of Ampicillin [2, 9]: > 32 µg/mL | MIC of Ampicillin [7]: > 32 µg/mL | MIC of Ampicillin [4, 9]: > 32 µg/mL | MIC of Ampicillin [5, 9]: > 32 µg/mL

CC1(C)S[C@@H]2[C@H](NC(=O)[C@H](N)c3ccc(O)cc3)C(=O)N2[C@H]1C(=O)O [amoxycillin, reference compound]
CD50 of amoxycillin ([3]; amoxycillin alone): greater than 500 mg/kg×2
